Assays:
rat mammary epithelium = experiment: Bioassay on proliferating/differentiating effects in the rat mammary epithelium (whole mount staining); type: in vivo
Experimental: The object of this test is to evaluate the effect of progestins on the development of the mammary gland, in particular on the formation of terminal end buds in the mammary gland in estrogen primed rats.
Premature female rats (Wistar Han, SPF) are ovariectomized at the age of 21 days, 4 to 6 days before treatment start. The animals are treated for 6 days with standard estrogen (estrone, 70 µg/kg) and the test progestin (application volume: 0.1 ml/50g body weight; vehicle: benzylbenzoate/castor oil (1+4 v/v); subcutaneous). Control groups are e.g.: vehicle, estrone without progestin, estradiol together with a known progestin, e.g. R5020 (promegestone). After the 6-day treatment the animals are killed with carbon dioxide.
For the whole mount staining, animals are shaved in the left abdominal inguinal mammary region, which is cut from the body together with the skin. For the histological/immunohistochemical analyses the right abdominal inguinal mammary gland is cut from the body together with the connective tissue adhered thereto and fixed in 3.7 % formalin in PBS (phosphate buffer saline; without Ca^2+/Mg^2+).
The preparations are fixed over night in alcohol-formalin according to the method of Tellyesniczky (see below). Then the mammary gland tissue and subcutis adhered thereto are stripped from the cutis and the preparations are again fixed over night. The further steps are as follows: ethanol 70 %: 1.5 hours; acetone: 3 × 1.5 hours; acetone: over night; isopropanol: 1.5 hours; ethanol 96 %: 2 hours; hematoxylin-iron: 3 hours; VE water: first rinse the preparations and then 2 × 0.5 hours; ethanol 70 %: over night; ethanol 80 %: 1.5 hours; ethanol 96 %: 1.5 hours; isopropanol: 1.5 hours. The preparations are then moved to petri dishes and left in toluene for approximately 1 hour, i.e. until they have stopped to swim up. Then the preparations are treated with cedarwood oil (Merck, no. 1.06965). The incubation times above are minimum times and can be extended. In particular, incubation in ethanol 70 % after fixation can be extended to at least 2.5 weeks.
Preparation of the solutions necessary for the whole mount staining: • a) Alcohol-formalin according to Tellyesniczky: formaldehyde 37%: 81.8 ml, ethanol 70 %: 1636 ml, glacial acetic acid (to be added shortly before use): 81.8 ml (total: 1800 ml). • b) Hematoxylin mother solution: Hematoxylin (Merck, no. 1.15938): 10 g, ethanol 96 %: 100 ml. The solution must stand for 48 hours at 37 °C before use. It can be kept in a dark place for almost unlimited time. • c) Hematoxylin-iron solution for use: hematoxylin mother solution (filtered): 15.2 ml, ethanol 96 %: 1374 ml, FeCl3 x 6 H2O (s. 4): 91.1 ml, 1 mol/l HCl: 220 ml (total: 1700 ml); adjustment to a pH of 1.25 with 2mol/l NaOH. • d) FeCl3 x 6 H2O solution: FeCl3 x 6 H2O (Merck, no. 1.03943): 1.07 g, VE water: 90.2 ml, HCl: 37 %: 0.92 ml (total: 91.1 ml).
By means of a 40-fold magnification, the terminal end buds near the nipple in direction of the tail are counted. The area to be investigated should be about 1.8 mm^2. For well-differentiated preparations this area may be reduced, with at least 250 buds to be counted. After counting, the number of end buds per 1 mm^2 is calculated. […]

[1] = target: T1, glucocorticoid receptor (GR) (Homo sapiens, UniProt P04150); experiment: Glucocorticoid receptor binding
T1 sequence (P04150 1-777): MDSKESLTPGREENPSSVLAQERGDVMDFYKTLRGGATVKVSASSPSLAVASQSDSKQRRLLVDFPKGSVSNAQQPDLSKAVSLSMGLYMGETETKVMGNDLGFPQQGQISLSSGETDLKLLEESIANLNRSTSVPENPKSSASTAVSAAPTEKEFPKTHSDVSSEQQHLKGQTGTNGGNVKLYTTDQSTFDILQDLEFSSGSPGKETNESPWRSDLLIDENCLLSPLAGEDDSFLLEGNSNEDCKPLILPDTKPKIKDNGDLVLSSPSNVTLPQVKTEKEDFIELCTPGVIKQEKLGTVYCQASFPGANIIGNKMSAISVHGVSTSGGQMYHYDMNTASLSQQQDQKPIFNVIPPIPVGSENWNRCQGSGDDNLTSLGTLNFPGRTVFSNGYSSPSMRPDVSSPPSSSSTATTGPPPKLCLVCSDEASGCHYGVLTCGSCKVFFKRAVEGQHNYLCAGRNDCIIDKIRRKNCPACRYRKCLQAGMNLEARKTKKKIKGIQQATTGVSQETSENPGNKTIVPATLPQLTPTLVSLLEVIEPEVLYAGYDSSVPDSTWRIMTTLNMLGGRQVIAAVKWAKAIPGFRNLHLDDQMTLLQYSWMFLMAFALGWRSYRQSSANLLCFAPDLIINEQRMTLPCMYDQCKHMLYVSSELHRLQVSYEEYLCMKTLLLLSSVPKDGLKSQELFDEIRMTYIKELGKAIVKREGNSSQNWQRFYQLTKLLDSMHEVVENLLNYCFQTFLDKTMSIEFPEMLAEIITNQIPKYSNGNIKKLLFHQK

[2] = target: T2, estrogen receptor-α (ERα) (Homo sapiens, UniProt P03372); experiment: Estrogen receptor-α binding; settings: in vitro
T2 sequence (P03372 1-595): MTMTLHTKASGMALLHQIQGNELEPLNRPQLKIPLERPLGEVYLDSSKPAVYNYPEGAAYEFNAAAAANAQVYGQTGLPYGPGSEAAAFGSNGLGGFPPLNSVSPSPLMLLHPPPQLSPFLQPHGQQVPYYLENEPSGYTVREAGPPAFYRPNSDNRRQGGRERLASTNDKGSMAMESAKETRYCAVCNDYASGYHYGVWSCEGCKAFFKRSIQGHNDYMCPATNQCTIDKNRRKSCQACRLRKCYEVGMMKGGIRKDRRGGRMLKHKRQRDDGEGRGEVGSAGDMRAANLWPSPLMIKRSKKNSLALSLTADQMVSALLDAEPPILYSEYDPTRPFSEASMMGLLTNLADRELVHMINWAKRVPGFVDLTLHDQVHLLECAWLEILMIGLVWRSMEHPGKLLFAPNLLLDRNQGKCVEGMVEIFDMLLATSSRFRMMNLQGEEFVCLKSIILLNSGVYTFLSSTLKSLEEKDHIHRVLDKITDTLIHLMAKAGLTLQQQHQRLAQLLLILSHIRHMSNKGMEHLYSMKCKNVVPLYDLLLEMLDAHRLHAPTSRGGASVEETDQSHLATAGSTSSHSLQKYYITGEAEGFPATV

O=C1OCc2cc(NC(=O)C(O)(CC3(c4cc(C(F)(F)F)ccc4F)CC3)C(F)(F)F)ccc21 (single isomer, unassigned; (+)) [((+)-1), (+)-5-{2-hydroxy-3-[1-(2-fluoro-5-trifluoromethylphenyl)-cyclopropyl]-2-trifluoromethyl-propionylamino}-phthalide]
Mammary gland, whole mount staining (rat) [equi-efficient dose], factor compared to R5020 (rat mammary epithelium; median of three independent tests): ca. 1 | effects at the mammary gland (rat mammary epithelium; rat, amount suitable for maintaining pregnancy): no effects at the mammary gland are observed | Mammary gland, whole mount staining (rat) [equi-efficient dose] (rat mammary epithelium; terminal end buds, dose pair with 0.1 mg/kg R5020, independent test): 0.03 mg/kg | affinity for the glucocorticoid receptor (GR) [1]: very high | affinity for the estrogen receptor-α (ERα) [2]: negligible

From patent EP1344776A1, “5- 2-hydroxy-3-[1-(3-trifluoromethylphenyl)-cyclopropyl]-propionylamino -phtalide and 6- 2-hydroxy-3-[1-(3-trifluoromethylphenyl)-cyclopropyl]-propionylamino -4-methyl-2,3-benzoxazin-1-one derivatives with progesterone receptor modulating activity for use in fertility control, hormone replacement …” (Schering Aktiengesellschaft, priority 2002, dated 2003)
